Like-named read-outs stand apart in the source and are kept apart here.
How the values were obtained:
Format in all cases: cell-based
[1] = test system: Colletotrichum destructivum; conditions: 25° C., 1 day or 2 days
Pyricularia oryzae = conditions: 25° C., 1 day or 2 days
[2] = test system: Colletotrichum orbiculare; conditions: 25° C., 1 day or 2 days
Fusarium oxysporum = test system: Fusarium oxysporum
Botrytis cinerea = conditions: 25° C., 1 day or 2 days

AFSERTRK (listed as Solanum lycopersicum) [TsORF18-2-8aa-6]
0: Plate antimicrobial activity test Colletotrichum destructivum (level) ([1]; peptide 1 μM) | Plate antimicrobial activity test Colletotrichum destructivum (level) ([1]; peptide 10 μM) | Plate antimicrobial activity test Colletotrichum destructivum (level) ([1]; peptide 100 μM) | Plate antimicrobial activity test Pyricularia oryzae (level) (Pyricularia oryzae; peptide 1 μM) | Plate antimicrobial activity test Pyricularia oryzae (level) (Pyricularia oryzae; peptide 10 μM) | Plate antimicrobial activity test Pyricularia oryzae (level) (Pyricularia oryzae; peptide 100 μM) | Plate antimicrobial activity test Collectotrichum orbiculare (level) ([2]; peptide 1 μM) | Plate antimicrobial activity test Collectotrichum orbiculare (level) ([2]; peptide 10 μM) | Plate antimicrobial activity test Collectotrichum orbiculare (level) ([2]; peptide 100 μM) | Plate antimicrobial activity test Fusarium oxysporum (level) (Fusarium oxysporum) | Plate antimicrobial activity test Botrytis cinerea (level) (Botrytis cinerea; peptide 1 μM) | Plate antimicrobial activity test Botrytis cinerea (level) (Botrytis cinerea; peptide 10 μM) | Plate antimicrobial activity test Botrytis cinerea (level) (Botrytis cinerea; peptide 100 μM)

FPAFSERT (listed as Solanum lycopersicum) [TsORF18-2-8aa-4]
0: Plate antimicrobial activity test Colletotrichum destructivum (level) ([1]; peptide 1 μM) | Plate antimicrobial activity test Colletotrichum destructivum (level) ([1]; peptide 10 μM) | Plate antimicrobial activity test Colletotrichum destructivum (level) ([1]; peptide 100 μM) | Plate antimicrobial activity test Pyricularia oryzae (level) (Pyricularia oryzae; peptide 1 μM) | Plate antimicrobial activity test Pyricularia oryzae (level) (Pyricularia oryzae; peptide 10 μM) | Plate antimicrobial activity test Pyricularia oryzae (level) (Pyricularia oryzae; peptide 100 μM) | Plate antimicrobial activity test Collectotrichum orbiculare (level) ([2]; peptide 1 μM) | Plate antimicrobial activity test Collectotrichum orbiculare (level) ([2]; peptide 10 μM) | Plate antimicrobial activity test Collectotrichum orbiculare (level) ([2]; peptide 100 μM) | Plate antimicrobial activity test Fusarium oxysporum (level) (Fusarium oxysporum) | Plate antimicrobial activity test Botrytis cinerea (level) (Botrytis cinerea; peptide 1 μM) | Plate antimicrobial activity test Botrytis cinerea (level) (Botrytis cinerea; peptide 10 μM) | Plate antimicrobial activity test Botrytis cinerea (level) (Botrytis cinerea; peptide 100 μM)

WKGKT (listed as Solanum lycopersicum) [TsORF18-2-5aa-18]
0: Plate antimicrobial activity test Colletotrichum destructivum (level) ([1]; peptide 1 μM) | Plate antimicrobial activity test Colletotrichum destructivum (level) ([1]; peptide 10 μM) | Plate antimicrobial activity test Colletotrichum destructivum (level) ([1]; peptide 100 μM) | Plate antimicrobial activity test Pyricularia oryzae (level) (Pyricularia oryzae; peptide 1 μM) | Plate antimicrobial activity test Pyricularia oryzae (level) (Pyricularia oryzae; peptide 10 μM) | Plate antimicrobial activity test Pyricularia oryzae (level) (Pyricularia oryzae; peptide 100 μM) | Plate antimicrobial activity test Collectotrichum orbiculare (level) ([2]; peptide 1 μM) | Plate antimicrobial activity test Collectotrichum orbiculare (level) ([2]; peptide 10 μM) | Plate antimicrobial activity test Collectotrichum orbiculare (level) ([2]; peptide 100 μM) | Plate antimicrobial activity test Fusarium oxysporum (level) (Fusarium oxysporum) | Plate antimicrobial activity test Botrytis cinerea (level) (Botrytis cinerea; peptide 1 μM) | Plate antimicrobial activity test Botrytis cinerea (level) (Botrytis cinerea; peptide 10 μM) | Plate antimicrobial activity test Botrytis cinerea (level) (Botrytis cinerea; peptide 100 μM)

YYGFP (listed as Solanum lycopersicum) [TsORF18-2-5aa-1]
0: Plate antimicrobial activity test Colletotrichum destructivum (level) ([1]; peptide 1 μM) | Plate antimicrobial activity test Colletotrichum destructivum (level) ([1]; peptide 10 μM) | Plate antimicrobial activity test Colletotrichum destructivum (level) ([1]; peptide 100 μM) | Plate antimicrobial activity test Pyricularia oryzae (level) (Pyricularia oryzae; peptide 1 μM) | Plate antimicrobial activity test Pyricularia oryzae (level) (Pyricularia oryzae; peptide 10 μM) | Plate antimicrobial activity test Pyricularia oryzae (level) (Pyricularia oryzae; peptide 100 μM) | Plate antimicrobial activity test Collectotrichum orbiculare (level) ([2]; peptide 1 μM) | Plate antimicrobial activity test Collectotrichum orbiculare (level) ([2]; peptide 10 μM) | Plate antimicrobial activity test Collectotrichum orbiculare (level) ([2]; peptide 100 μM) | Plate antimicrobial activity test Fusarium oxysporum (level) (Fusarium oxysporum) | Plate antimicrobial activity test Botrytis cinerea (level) (Botrytis cinerea; peptide 1 μM) | Plate antimicrobial activity test Botrytis cinerea (level) (Botrytis cinerea; peptide 10 μM) | Plate antimicrobial activity test Botrytis cinerea (level) (Botrytis cinerea; peptide 100 μM)

FSERTRKF (listed as Solanum lycopersicum) [TsORF18-2-8aa-7]
0: Plate antimicrobial activity test Colletotrichum destructivum (level) ([1]; peptide 1 μM) | Plate antimicrobial activity test Colletotrichum destructivum (level) ([1]; peptide 10 μM) | Plate antimicrobial activity test Colletotrichum destructivum (level) ([1]; peptide 100 μM) | Plate antimicrobial activity test Pyricularia oryzae (level) (Pyricularia oryzae; peptide 1 μM) | Plate antimicrobial activity test Pyricularia oryzae (level) (Pyricularia oryzae; peptide 10 μM) | Plate antimicrobial activity test Pyricularia oryzae (level) (Pyricularia oryzae; peptide 100 μM) | Plate antimicrobial activity test Collectotrichum orbiculare (level) ([2]; peptide 1 μM) | Plate antimicrobial activity test Collectotrichum orbiculare (level) ([2]; peptide 10 μM) | Plate antimicrobial activity test Collectotrichum orbiculare (level) ([2]; peptide 100 μM) | Plate antimicrobial activity test Fusarium oxysporum (level) (Fusarium oxysporum) | Plate antimicrobial activity test Botrytis cinerea (level) (Botrytis cinerea; peptide 1 μM) | Plate antimicrobial activity test Botrytis cinerea (level) (Botrytis cinerea; peptide 10 μM) | Plate antimicrobial activity test Botrytis cinerea (level) (Botrytis cinerea; peptide 100 μM)

RIWKG (listed as Solanum lycopersicum) [TsORF18-2-5aa-16]
0: Plate antimicrobial activity test Colletotrichum destructivum (level) ([1]; peptide 1 μM) | Plate antimicrobial activity test Colletotrichum destructivum (level) ([1]; peptide 10 μM) | Plate antimicrobial activity test Colletotrichum destructivum (level) ([1]; peptide 100 μM) | Plate antimicrobial activity test Pyricularia oryzae (level) (Pyricularia oryzae; peptide 1 μM) | Plate antimicrobial activity test Pyricularia oryzae (level) (Pyricularia oryzae; peptide 10 μM) | Plate antimicrobial activity test Pyricularia oryzae (level) (Pyricularia oryzae; peptide 100 μM) | Plate antimicrobial activity test Collectotrichum orbiculare (level) ([2]; peptide 1 μM) | Plate antimicrobial activity test Collectotrichum orbiculare (level) ([2]; peptide 10 μM) | Plate antimicrobial activity test Collectotrichum orbiculare (level) ([2]; peptide 100 μM) | Plate antimicrobial activity test Fusarium oxysporum (level) (Fusarium oxysporum) | Plate antimicrobial activity test Botrytis cinerea (level) (Botrytis cinerea; peptide 1 μM) | Plate antimicrobial activity test Botrytis cinerea (level) (Botrytis cinerea; peptide 10 μM) | Plate antimicrobial activity test Botrytis cinerea (level) (Botrytis cinerea; peptide 100 μM)

YGFPAFSE (listed as Solanum lycopersicum) [TsORF18-2-8aa-2]
0: Plate antimicrobial activity test Colletotrichum destructivum (level) ([1]; peptide 1 μM) | Plate antimicrobial activity test Colletotrichum destructivum (level) ([1]; peptide 10 μM) | Plate antimicrobial activity test Colletotrichum destructivum (level) ([1]; peptide 100 μM) | Plate antimicrobial activity test Pyricularia oryzae (level) (Pyricularia oryzae; peptide 1 μM) | Plate antimicrobial activity test Pyricularia oryzae (level) (Pyricularia oryzae; peptide 10 μM) | Plate antimicrobial activity test Pyricularia oryzae (level) (Pyricularia oryzae; peptide 100 μM) | Plate antimicrobial activity test Collectotrichum orbiculare (level) ([2]; peptide 1 μM) | Plate antimicrobial activity test Collectotrichum orbiculare (level) ([2]; peptide 10 μM) | Plate antimicrobial activity test Collectotrichum orbiculare (level) ([2]; peptide 100 μM) | Plate antimicrobial activity test Fusarium oxysporum (level) (Fusarium oxysporum) | Plate antimicrobial activity test Botrytis cinerea (level) (Botrytis cinerea; peptide 1 μM) | Plate antimicrobial activity test Botrytis cinerea (level) (Botrytis cinerea; peptide 10 μM) | Plate antimicrobial activity test Botrytis cinerea (level) (Botrytis cinerea; peptide 100 μM)

FPAFS (listed as Solanum lycopersicum) [TsORF18-2-5aa-4]
0: Plate antimicrobial activity test Colletotrichum destructivum (level) ([1]; peptide 1 μM) | Plate antimicrobial activity test Colletotrichum destructivum (level) ([1]; peptide 10 μM) | Plate antimicrobial activity test Colletotrichum destructivum (level) ([1]; peptide 100 μM) | Plate antimicrobial activity test Pyricularia oryzae (level) (Pyricularia oryzae; peptide 1 μM) | Plate antimicrobial activity test Pyricularia oryzae (level) (Pyricularia oryzae; peptide 10 μM) | Plate antimicrobial activity test Pyricularia oryzae (level) (Pyricularia oryzae; peptide 100 μM) | Plate antimicrobial activity test Collectotrichum orbiculare (level) ([2]; peptide 1 μM) | Plate antimicrobial activity test Collectotrichum orbiculare (level) ([2]; peptide 10 μM) | Plate antimicrobial activity test Collectotrichum orbiculare (level) ([2]; peptide 100 μM) | Plate antimicrobial activity test Fusarium oxysporum (level) (Fusarium oxysporum) | Plate antimicrobial activity test Botrytis cinerea (level) (Botrytis cinerea; peptide 1 μM) | Plate antimicrobial activity test Botrytis cinerea (level) (Botrytis cinerea; peptide 10 μM) | Plate antimicrobial activity test Botrytis cinerea (level) (Botrytis cinerea; peptide 100 μM)

SERTR (listed as Solanum lycopersicum) [TsORF18-2-5aa-8]
0: Plate antimicrobial activity test Colletotrichum destructivum (level) ([1]; peptide 1 μM) | Plate antimicrobial activity test Colletotrichum destructivum (level) ([1]; peptide 10 μM) | Plate antimicrobial activity test Colletotrichum destructivum (level) ([1]; peptide 100 μM) | Plate antimicrobial activity test Pyricularia oryzae (level) (Pyricularia oryzae; peptide 1 μM) | Plate antimicrobial activity test Pyricularia oryzae (level) (Pyricularia oryzae; peptide 10 μM) | Plate antimicrobial activity test Pyricularia oryzae (level) (Pyricularia oryzae; peptide 100 μM) | Plate antimicrobial activity test Collectotrichum orbiculare (level) ([2]; peptide 1 μM) | Plate antimicrobial activity test Collectotrichum orbiculare (level) ([2]; peptide 10 μM) | Plate antimicrobial activity test Collectotrichum orbiculare (level) ([2]; peptide 100 μM) | Plate antimicrobial activity test Fusarium oxysporum (level) (Fusarium oxysporum) | Plate antimicrobial activity test Botrytis cinerea (level) (Botrytis cinerea; peptide 1 μM) | Plate antimicrobial activity test Botrytis cinerea (level) (Botrytis cinerea; peptide 10 μM) | Plate antimicrobial activity test Botrytis cinerea (level) (Botrytis cinerea; peptide 100 μM)

PAFSE (listed as Solanum lycopersicum) [TsORF18-2-5aa-5]
0: Plate antimicrobial activity test Colletotrichum destructivum (level) ([1]; peptide 1 μM) | Plate antimicrobial activity test Colletotrichum destructivum (level) ([1]; peptide 10 μM) | Plate antimicrobial activity test Colletotrichum destructivum (level) ([1]; peptide 100 μM) | Plate antimicrobial activity test Pyricularia oryzae (level) (Pyricularia oryzae; peptide 1 μM) | Plate antimicrobial activity test Pyricularia oryzae (level) (Pyricularia oryzae; peptide 10 μM) | Plate antimicrobial activity test Pyricularia oryzae (level) (Pyricularia oryzae; peptide 100 μM) | Plate antimicrobial activity test Collectotrichum orbiculare (level) ([2]; peptide 1 μM) | Plate antimicrobial activity test Collectotrichum orbiculare (level) ([2]; peptide 10 μM) | Plate antimicrobial activity test Collectotrichum orbiculare (level) ([2]; peptide 100 μM) | Plate antimicrobial activity test Fusarium oxysporum (level) (Fusarium oxysporum) | Plate antimicrobial activity test Botrytis cinerea (level) (Botrytis cinerea; peptide 1 μM) | Plate antimicrobial activity test Botrytis cinerea (level) (Botrytis cinerea; peptide 10 μM) | Plate antimicrobial activity test Botrytis cinerea (level) (Botrytis cinerea; peptide 100 μM)

IWKGK (listed as Solanum lycopersicum) [TsORF18-2-5aa-17]
0: Plate antimicrobial activity test Colletotrichum destructivum (level) ([1]; peptide 1 μM) | Plate antimicrobial activity test Colletotrichum destructivum (level) ([1]; peptide 10 μM) | Plate antimicrobial activity test Colletotrichum destructivum (level) ([1]; peptide 100 μM) | Plate antimicrobial activity test Pyricularia oryzae (level) (Pyricularia oryzae; peptide 1 μM) | Plate antimicrobial activity test Pyricularia oryzae (level) (Pyricularia oryzae; peptide 10 μM) | Plate antimicrobial activity test Pyricularia oryzae (level) (Pyricularia oryzae; peptide 100 μM) | Plate antimicrobial activity test Collectotrichum orbiculare (level) ([2]; peptide 1 μM) | Plate antimicrobial activity test Collectotrichum orbiculare (level) ([2]; peptide 10 μM) | Plate antimicrobial activity test Collectotrichum orbiculare (level) ([2]; peptide 100 μM) | Plate antimicrobial activity test Fusarium oxysporum (level) (Fusarium oxysporum) | Plate antimicrobial activity test Botrytis cinerea (level) (Botrytis cinerea; peptide 1 μM) | Plate antimicrobial activity test Botrytis cinerea (level) (Botrytis cinerea; peptide 10 μM) | Plate antimicrobial activity test Botrytis cinerea (level) (Botrytis cinerea; peptide 100 μM)

YGFPA (listed as Solanum lycopersicum) [TsORF18-2-5aa-2]
0: Plate antimicrobial activity test Colletotrichum destructivum (level) ([1]; peptide 1 μM) | Plate antimicrobial activity test Colletotrichum destructivum (level) ([1]; peptide 10 μM) | Plate antimicrobial activity test Colletotrichum destructivum (level) ([1]; peptide 100 μM) | Plate antimicrobial activity test Pyricularia oryzae (level) (Pyricularia oryzae; peptide 1 μM) | Plate antimicrobial activity test Pyricularia oryzae (level) (Pyricularia oryzae; peptide 10 μM) | Plate antimicrobial activity test Pyricularia oryzae (level) (Pyricularia oryzae; peptide 100 μM) | Plate antimicrobial activity test Collectotrichum orbiculare (level) ([2]; peptide 1 μM) | Plate antimicrobial activity test Collectotrichum orbiculare (level) ([2]; peptide 10 μM) | Plate antimicrobial activity test Collectotrichum orbiculare (level) ([2]; peptide 100 μM) | Plate antimicrobial activity test Fusarium oxysporum (level) (Fusarium oxysporum) | Plate antimicrobial activity test Botrytis cinerea (level) (Botrytis cinerea; peptide 1 μM) | Plate antimicrobial activity test Botrytis cinerea (level) (Botrytis cinerea; peptide 10 μM) | Plate antimicrobial activity test Botrytis cinerea (level) (Botrytis cinerea; peptide 100 μM)

GFPAFSER (listed as Solanum lycopersicum) [TsORF18-2-8aa-3]
0: Plate antimicrobial activity test Colletotrichum destructivum (level) ([1]; peptide 1 μM) | Plate antimicrobial activity test Colletotrichum destructivum (level) ([1]; peptide 10 μM) | Plate antimicrobial activity test Colletotrichum destructivum (level) ([1]; peptide 100 μM) | Plate antimicrobial activity test Pyricularia oryzae (level) (Pyricularia oryzae; peptide 1 μM) | Plate antimicrobial activity test Pyricularia oryzae (level) (Pyricularia oryzae; peptide 10 μM) | Plate antimicrobial activity test Pyricularia oryzae (level) (Pyricularia oryzae; peptide 100 μM) | Plate antimicrobial activity test Collectotrichum orbiculare (level) ([2]; peptide 1 μM) | Plate antimicrobial activity test Collectotrichum orbiculare (level) ([2]; peptide 10 μM) | Plate antimicrobial activity test Collectotrichum orbiculare (level) ([2]; peptide 100 μM) | Plate antimicrobial activity test Fusarium oxysporum (level) (Fusarium oxysporum) | Plate antimicrobial activity test Botrytis cinerea (level) (Botrytis cinerea; peptide 1 μM) | Plate antimicrobial activity test Botrytis cinerea (level) (Botrytis cinerea; peptide 10 μM) | Plate antimicrobial activity test Botrytis cinerea (level) (Botrytis cinerea; peptide 100 μM)
